Data reported in US20250325516A1, “SEROTONIN ANALOGUES FOR USE IN TREATING METALLOPTOSIS-ASSOCIATED DISORDERS” (INSTITUT CURIE, priority 2022, published 2025).
Entries after “also recorded” stand apart in the source; their conditions may differ.

How the values were obtained:
[1] = Colorimetric assessment of metal complex formation in aqueous solution; type: binding
Method: […] assessment of complex formation: To an aqueous solution of serotonin hydrochloride (3 equiv., C=0.1 M) or A3 formic salt (3 equiv., C=0.1 M) iron (III) chloride (1 equiv.) or copper (II) sulfate (C=0.1 M) was added. A color change characterized the formation of metal complexes.

PDAC cells = assay: Cell apoptosis assay with Annexin V and propidium iodide, RSL3-treated PDAC cells (FIG. 10a); type: cell-based; conditions: RSL3 0.1, 0.5, 2, 10 μM, compounds 10 μM, 24 h
Method: Pancreatic Ductal Adenocarcinoma (PDAC) cells were grown at 37° C. and 5% CO2 using medium prepared based on previously described (https://doi.org/10.1053/j.gastro.2004.03.058).
PDAC cells were seeded on 6 well plates at the density of 2×10^5 cells/well. RSL3 (0.1, 0.5, 2, 10 µM) was added along with compounds (10 μM) on the following day and after 24 h, the media was recovered and the cells were typsinated. The cells were harvested, pelleted along with the media recovered, washed with PBS, and 100 μl of 1× annexin binding buffer containing annexin V and PI (according to the manufacturer's protocol Dead Cell Apoptosis Kits with Annexin V for Flow Cytometry (Invitrogen)). Finally, PBS buffer containing 10% FBS and 1 mM of EDTA, was added for flow cytometry.

[2] = system: Cells treated with a ferroptosis inducer; assay: CellTiter-Blue cell viability with a ferroptosis inducer (FIG. 6b); type: cell-based; conditions: co-treatment with ferroptosis inducer
Method: Cell viability was evaluated by plating 4,000 cells/well in 96-well plates using CellTiter-Blue viability assay according to the manufacturer's protocol. CellTiter-Blue reagent (Promega, G8081) was added after 72 h treatment and cells were incubated for 2 h before recording fluorescence intensities (Eex. 560 nm; Eem. 590 nm) using a Perkin Elmer Wallac 1420 Victor2 Microplate Reader.

HMLER cells = assay: Click-chemistry fluorescence microscopy with LysoTracker co-staining, HMLER cells; type: cell-based, human; conditions: 1 μM, 3 h, LysoTracker 45 mins, Alexa-488-N3 click
Method: (§1) All cells were grown in an incubator equilibrated at 37° C. with 5% CO2, grown to confluence and split with Trypsin/EDTA (Gibco, TRYPGIB01) once or twice a week according to confluence. HMLER cells ([…]) naturally repressing E-cadherin, obtained from human mammary epithelial cells infected with a retrovirus carrying hTERT, SV40 and the oncogenic allele H-rasV12, and HMLER CD44 and TFRC ko clones were cultured in DMEM/F12 (Thermo Fisher Scientific, 31331093) supplemented with 10% FBS (v/v) (Thermo Fisher Scientific, 10270106), 10 μg/mL insulin (Sigma-Aldrich, 10516), 0.5 μg/mL hydrocortisone (Sigma-Aldrich, H0888) and 0.5 μg/ml puromycin (Life Technologies, A11138-02), unless stated otherwise. PDAC053 T cells were grown in serum-free ductal medium: DMEM/F12 supplemented with 0.61 g/500 mL nicotinamide (Sigma-Aldrich, 3376), 2.50 g/500 mL glucose (Sigma-Aldrich, G6152), 1:200 ITS+ (Corning, 354352), 1:20 Nu-serum IV (Corning, 355104), 100 ng/ml cholera toxin, 1 μM dexamethasone (Sigma-Aldrich, D4902), 50 nM 3,3′,5-triiodo-L-thyronine (Sigma-Aldrich, T6397) and 1× PenStrep. BELA cells were cultured using published procedures (Nat. Comm. doi: 10.1038/ncomms14750).
Fluorescence microscopy of clickable serotonin analog A3: Cells were plated on cover slips 24 h prior to the experiment. […]

[3] = system: Cells treated with a ferroptosis inducer; assay: BODIPY-C11 lipid peroxidation, cells treated with a ferroptosis inducer (FIG. 6a); type: cell-based; conditions: co-treatment with ferroptosis inducer
Method: (§2) Bodipy-C11 (Thermo Fisher Scientific, D3861) were used according to the manufacturer's protocol. RhoNox-M (in-house) was added to live cells prior to flow cytometry analysis for 1 h at a concentration of 1 μM. For the Annexin/PI assay (Thermo Fisher Scientific, V13245, manufacturer's protocol) BELA cells were treated with RSL3 in the presence or absence of 1 μM Liproxstatin-1 (Sigma-Aldrich, SML1414) or 10 μM A3 for 24 h. Cells were then washed twice with ice-cold 1×PBS and suspended in incubation buffer prior to being analyzed by flow cytometry. The manufacturer's protocol was followed. For each condition, at least 10,000 cells were counted. Data were recorded on an Attune (Thermo Fisher Scientific) and processed using FlowJo (FLOWJO, LLC).

BELA cells = assay: RhoNox-M (lysosomal Fe2+ probe) flow cytometry; type: cell-based; conditions: 10 μM, 24 h
Method: as §1, §2

C#CCNCCc1c[nH]c2ccc(O)cc12 [Compound A3]
colour of solution in the presence of FeCl3 and CuSO4, indicative of complex formation ([1]; aqueous solution, 3 equiv. compound, C=0.1 M): form differently colored solutions
complex formation with Fe(II), Fe(III) and Cu(II) ([1]; colorimetric complexation studies in solution (FIG. 1) and NMR spectroscopy (FIG. 2)): form readily complexes
protection against RSL3-induced ferroptosis (Annexin/propidium iodide) (PDAC cells): protects against RSL3-induced ferroptosis
cell viability / cell death caused by a ferroptosis inducer [2]: rescues cell death; also recorded: rescue of cell viability
localization in lysosomes (HMLER cells): found to localize in lysosomes; also recorded: accumulate in lysosomes
lipid peroxidation (BODIPY-C11 fluorescence) induced by a ferroptosis inducer [3]: reduces lipid peroxidation; also recorded: reduction of lipid peroxidation
RhoNox-M fluorescence (lysosomal Fe(II)) (BELA cells): increase of RhoNox-M fluorescence
